Assay results taken from patent US10005769B2, “2,3-dihydrobenzofuran-5YL compounds as DYRK kinase inhibitors” (4SC DISCOVERY GMBH, priority 2013, dated 2018).

Legend:
[1] = tested on: Hedgehog signaling pathway (Gli Reporter - NIH3T3 cell line); assay: Hedgehog Reporter Assay (Gli-Reporter, luciferase, mSHH stimulated); format: cell-based, murine; settings: Mus musculus; Gli Reporter NIH3T3 cells, 1 μg/ml mSHH, 24 h
Method: In order to investigate the potency of test compounds to inhibit the Hedgehog signaling pathway, a Gli-Reporter assay was performed. The “Gli Reporter-NIH3T3” cell line contains the firefly luciferase gene under the control of Gli responsive elements stably integrated into murine NIH3T3 cells (cells purchased from AMS Biotechnology ltd., 184 Milton Park, Abingdon OX14 4SE, U.K.). The luciferase expression correlates with activation of the hedgehog signaling pathway. This cell line is validated for its response to stimulation with murine Sonic Hedgehog and to treatment with inhibitors of the hedgehog signaling pathway. A multiplexed viability assay was used to discriminate inhibition on the pathway activity from cell toxicity. Growth Medium: DMEM (Dulbecco's Modified Eagle Medium); 10% Fetal Calf Serum; 1% Penicillin/Streptomycin; 500 μg/ml Geneticin (G418 Stock 50 mg/ml). Assay Medium: Opti-MEM® Reduced Serum Medium; 0.5% Calf Serum; 1% non-essential amino acids; 1 mM Na-pyruvate; 10 mM HEPES; 1% Penicillin/Streptomycin. 25,000 cells per well were seeded into a white 96 well plate in 100 μl growth medium and incubated over night at 37° C. and 5% CO2. After removing the supernatant the test compounds and controls were added in different concentrations in a final volume of 45 μl and incubated for 1 h at 37° C. and 5% CO2. For the stimulation of the Hedgehog pathway 5 μl of 10 μg/ml concentrated murine SHH (or mSHH; murine sonic hedgehog protein) was added to the cells. A final concentration of 1 μg/ml mSHH and 0.1% DMSO was reached per well. After incubation for 24 h at 37° C. the cells were investigated for viability and reporter activity. Viability: For the determination of the viability of the treated cells the CellTiter-FluorTM Kit from Promega comprising the fluorogenic, cell-permeant peptide substrate ([…]-aminofluorocoumarin GF-AFC was used. Roughly, only proteases of viable cells are able to cleave the GF-AFC. By this cleavage the fluorescent AFC is set free and can be detected in a fluorescence reader. For this assay 10 μl of GF-AFC substrate (CellTiter-FluorTM, Promega #G6082) was diluted in 2 ml assay buffer from the CellTiter-FluorTM Kit and 10 μl of this dilution was added per well to the cells and incubated for 30 min at 37° C. The fluorescence was measured with an excitation of 380-400 nm and an emission of 505 nm. Reporter activity: The firefly luciferase reporter activity was detected with the ONE-GloTM Luciferase Assay System from Promega. For this assay 50 μl ONE-Glo luciferase reagent (Promega #E6120, contains cell lysis buffer and luciferin) was added to each well and incubated at room temperature for 5 min. Luminescence was detected in a plate reader and served as a measure for reporter activity.

DYRK1B = DYRK1B (Homo sapiens (Human), UniProt Q9Y463); assay: DYRK1B Kinase Assay (33P ATP, DYRKtide substrate, Reaction Biology Corp.); format: biochemical; settings: 0.3 nM DYRK1B, 20 μM DYRKtide, 10 μM ATP, 25° C., 120 min
Chain of DYRK1B (Q9Y463 whole entry): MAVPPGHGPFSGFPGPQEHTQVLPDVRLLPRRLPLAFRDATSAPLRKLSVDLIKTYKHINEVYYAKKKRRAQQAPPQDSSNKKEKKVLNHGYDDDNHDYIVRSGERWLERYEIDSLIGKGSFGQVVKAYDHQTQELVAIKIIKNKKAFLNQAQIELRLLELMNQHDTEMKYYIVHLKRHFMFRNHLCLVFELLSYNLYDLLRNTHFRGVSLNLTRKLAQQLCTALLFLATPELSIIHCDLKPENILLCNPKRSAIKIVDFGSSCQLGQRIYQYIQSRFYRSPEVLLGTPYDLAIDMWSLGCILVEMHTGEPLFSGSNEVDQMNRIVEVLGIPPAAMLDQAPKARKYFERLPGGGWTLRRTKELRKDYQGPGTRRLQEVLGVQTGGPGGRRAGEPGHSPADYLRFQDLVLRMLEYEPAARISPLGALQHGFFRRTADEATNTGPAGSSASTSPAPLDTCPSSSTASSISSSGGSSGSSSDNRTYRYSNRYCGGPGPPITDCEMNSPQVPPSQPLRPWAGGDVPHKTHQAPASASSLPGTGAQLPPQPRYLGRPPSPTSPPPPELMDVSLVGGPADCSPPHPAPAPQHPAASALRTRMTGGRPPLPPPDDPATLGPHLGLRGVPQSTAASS
Method: The assay was carried out by Reaction Biology Corp., […], Pa., USA according to specifications by Reaction Biology Corp., as detailed herein below and further described in Anastassiadis et al., Nature Biotechnology, 29 (2011) 1039-1045. The substrate DYRKtide (synthetic peptide RRRFRPASPLRGPPK) was dissolved in freshly prepared Base Reaction Buffer (20 mM Hepes (pH 7.5), 10 mM MgCl2, 1 mM EGTA, 0.02% Brij35, 0.02 mg/ml BSA, 0.1 mM Na3VO4, 2 mM DTT, 1% DMSO) at a concentration of 20 μM. DYRK1B was added to the substrate solution in a concentration of 0.3 nM and gently mixed. Dilution series of the compounds according to the present invention in DMSO were prepared. Each dilution was added to a batch of the above reaction mix, followed 20 min later by addition of a mixture of ATP and ^33P ATP (specific activity 0.01 μCi/μl final) to a final concentration of 10 μM. Reactions were carried out at 25° C. for 120 min, followed by spotting the reactions onto P81 ion exchange filter paper. Unbound phosphate was removed by extensive washing of the filters in 0.75% phosphoric acid. […] IC50 values and curve fits were obtained using Prism (Graph Pad Software). DYRK1B used in the above assays are further described in the below table: [table] Exemplary compound dilution series, final concentrations of compound in the assay vessel; the individual concentrations and the range of concentrations covered by the dilution series may differ for each compound, as long as enough data points are obtained to determine the compound's IC50: DYRK 1[…].

Row | Molecule | IC50 [1] [nM] | IC50 (DYRK1B) [nM]
1 | N#Cc1ccc2[nH]c(NC(=O)c3csc(-c4ccc5c(c4)CCO5)n3)nc2c1 [Compound 1, N-(5-Cyano-1H-benzo[d]imidazol-2-yl)-2-(2,3-dihydrobenzofuran-5-yl)thiazole-4-carboxamide] | 1000 to 3000 | 1.38
2 | O=C(Nc1nc2cc(Cl)c(F)cc2[nH]1)c1csc(-c2ccc3c(c2)CCO3)n1 [Compound 2, N-(5-Chloro-6-fluoro-1H-benzo[d]imidazol-2-yl)-2-(2,3-dihydrobenzofuran-5-yl)thiazole-4-carboxamide] | 1000 to 3000 | 48.2
3 | CS(=O)(=O)c1ccc2[nH]c(NC(=O)c3csc(-c4ccc5c(c4)CCO5)n3)nc2c1 [Compound 3, 2-(2,3-Dihydrobenzofuran-5-yl)-N-(5-(methylsulfonyl)-1H-benzo[d]imidazol-2-yl)thiazole-4-carboxamide] | < 1000 | 1.49
4 | COc1ccc2[nH]c(NC(=O)c3csc(-c4ccc5c(c4)CCO5)n3)nc2c1 [Compound 4, 2-(2,3-Dihydrobenzofuran-5-yl)-N-(5-methoxy-1H-benzo[d]imidazol-2-yl)thiazole-4-carboxamide] | 3000 to 10000 | 13.9
5 | O=C(Nc1nc2cc(Cl)ccc2[nH]1)c1csc(-c2ccc3c(c2)CCO3)n1 [Compound 6, N-(5-Chloro-1H-benzo[d]imidazol-2-yl)-2-(2,3-dihydrobenzofuran-5-yl)thiazole-4-carboxamide] | 1000 to 3000 | 1.9
6 | CN(C)C(=O)c1ccc2[nH]c(NC(=O)c3csc(-c4ccc5c(c4)CCO5)n3)nc2c1 [Compound 7, 2-(2,3-Dihydrobenzofuran-5-yl)-N-(5-(dimethylcarbamoyl)-1H-benzo[d]imidazol-2-yl)thiazole-4-carboxamide] | < 1000 | 1.74
7 | O=C(Nc1nc2cc(C(=O)N3CCN(CC4CCCO4)CC3)ccc2[nH]1)c1csc(-c2ccc3c(c2)CCO3)n1 (stereo not shown) [Compound 8, 2-(2,3-Dihydrobenzofuran-5-yl)-N-(5-(4-((tetrahydrofuran-2-yl)methyl)piperazine-1-carbonyl)-1H-benzo[d]imidazol-2-yl)thiazole-4-carboxamide] | < 1000 | 3.11
8 | CCOC(=O)c1ccc2[nH]c(NC(=O)c3csc(-c4ccc5c(c4)CCO5)n3)nc2c1 [Compound 9, Ethyl 2-(2-(2,3-dihydrobenzofuran-5-yl)thiazole-4-carboxamido)-1H-benzo[d]imidazole-5-carboxylate] | < 1000 | 3.63
9 | O=C(Nc1nc2cc(C(=O)N3CCOCC3)ccc2[nH]1)c1csc(-c2ccc3c(c2)CCO3)n1 [Compound 10, 2-(2,3-Dihydrobenzofuran-5-yl)-N-(5-(morpholine-4-carbonyl)-1H-benzo[d]imidazol-2-yl)thiazole-4-carboxamide] | < 1000 | 3.72
10 | O=C(Nc1ncc[nH]1)c1csc(-c2ccc3c(c2)CCO3)n1 [Compound 11, 2-(2,3-Dihydrobenzofuran-5-yl)-N-(1H-imidazol-2-yl)thiazole-4-carboxamide] | 1000 to 3000 | 66.8
11 | O=C(Nc1nc2c(C(F)(F)F)cccc2[nH]1)c1csc(-c2ccc3c(c2)CCO3)n1 [Compound 12, 2-(2,3-Dihydrobenzofuran-5-yl)-N-(4-(trifluoromethyl)-1H-benzo[d]imidazol-2-yl)thiazole-4-carboxamide] | 3000 to 10000 | 156
12 | Cc1cc(NC(=O)c2csc(-c3ccc4c(c3)CCO4)n2)n[nH]1 [Compound 66, 2-(2,3-Dihydro-1-benzofuran-5-yl)-N-(5-methyl-1H-pyrazol-3-yl)-1,3-thiazole-4-carboxamide] |  | 50.5
13 | O=C(Nc1nnc(Br)s1)c1csc(-c2ccc3c(c2)CCO3)n1 [Compound 67, N-(5-Bromo-1,3,4-thiadiazol-2-yl)-2-(2,3-dihydro-1-benzofuran-5-yl)-1,3-thiazole-4-carboxamide] |  | 65.9
14 | O=C(Nc1nc(-c2cccc(F)c2)n[nH]1)c1csc(-c2ccc3c(c2)CCO3)n1 [Compound 68, 2-(2,3-Dihydro-1-benzofuran-5-yl)-N-[3-(3-fluorophenyl)-1H-1,2,4-triazol-5-yl]-1,3-thiazole-4-carboxamide] |  | 67.1
15 | Cc1nsc(NC(=O)c2csc(-c3ccc4c(c3)CCO4)n2)n1 [Compound 69, 2-(2,3-Dihydro-1-benzofuran-5-yl)-N-(3-methyl-1,2,4-thiadiazol-5-yl)-1,3-thiazole-4-carboxamide] |  | 72.6
16 | Nc1nc(NC(=O)c2csc(-c3ccc4c(c3)CCO4)n2)ns1 [Compound 70, N-(5-Amino-1,2,4-thiadiazol-3-yl)-2-(2,3-dihydro-1-benzofuran-5-yl)-1,3-thiazole-4-carboxamide] |  | 73.4
17 | O=C(Nc1nncs1)c1csc(-c2ccc3c(c2)CCO3)n1 [Compound 71, 2-(2,3-Dihydro-1-benzofuran-5-yl)-N-(1,3,4-thiadiazol-2-yl)-1,3-thiazole-4-carboxamide] |  | 76.6
18 | Cc1csc(NC(=O)c2csc(-c3ccc4c(c3)CCO4)n2)n1 [Compound 72, 2-(2,3-Dihydro-1-benzofuran-5-yl)-N-(4-methyl-1,3-thiazol-2-yl)-1,3-thiazole-4-carboxamide] |  | 111
19 | O=C(Nc1ncns1)c1csc(-c2ccc3c(c2)CCO3)n1 [Compound 73, 2-(2,3-Dihydro-1-benzofuran-5-yl)-N-(1,2,4-thiadiazol-5-yl)-1,3-thiazole-4-carboxamide] |  | 114
20 | Cc1nc(NC(=O)c2csc(-c3ccc4c(c3)CCO4)n2)sc1C [Compound 74, 2-(2,3-Dihydro-1-benzofuran-5-yl)-N-(dimethyl-1,3-thiazol-2-yl)-1,3-thiazole-4-carboxamide] |  | 125
21 | O=C(Nc1nc2ccccc2s1)c1csc(-c2ccc3c(c2)CCO3)n1 [Compound 75, N-(1,3-Benzothiazol-2-yl)-2-(2,3-dihydro-1-benzofuran-5-yl)-1,3-thiazole-4-carboxamide] |  | 135
22 | CC(=O)c1csc(NC(=O)c2csc(-c3ccc4c(c3)CCO4)n2)n1 [Compound 76, N-(4-Acetyl-1,3-thiazol-2-yl)-2-(2,3-dihydro-1-benzofuran-5-yl)-1,3-thiazole-4-carboxamide] |  | 185
23 | CSc1nc(NC(=O)c2csc(-c3ccc4c(c3)CCO4)n2)ns1 [Compound 77, 2-(2,3-Dihydro-1-benzofuran-5-yl)-N-[5-(methylsulfanyl)-1,2,4-thiadiazol-3-yl]-1,3-thiazole-4-carboxamide] |  | 420
24 | CCOC(=O)c1csc(NC(=O)c2csc(-c3ccc4c(c3)CCO4)n2)n1 [Compound 78, Ethyl 2-[2-(2,3-dihydro-1-benzofuran-5-yl)-1,3-thiazole-4-amido]-1,3-thiazole-4-carboxylate] |  | 410
25 | O=C(Nc1ncco1)c1csc(-c2ccc3c(c2)CCO3)n1 [Compound 79, 2-(2,3-Dihydro-1-benzofuran-5-yl)-N-(1,3-oxazol-2-yl)-1,3-thiazole-4-carboxamide] |  | 766
26 | Ethyl 5-(2-(2,3-dihydrobenzofuran-5-yl)thiazole-4-carboxamido)-4H-1,2,4-triazole-3-carboxylate [Compound 20] |  | 109
